Measured values: patent publication US5382579A, “Triazolo-1,4-diazepine derivatives and their use in pharmaceuticals” (Eisai Co., Ltd., priority 1988, dated 1995)
pIC50: −log10 of the molar value. Read-outs that look alike come from different tables or passages of the source.

Molecular target: T1, PAF receptor (Homo sapiens, UniProt P25105)
T1 construct: Platelets are obtained from healthy men according to the usual method; endogenous in cells; host or cells: platelets from healthy men
Assay: PAF Receptor Binding Assay to the Human Platelet (3H-PAF)
Details: 3H-PAF 0.6-1 nM, 37° C., pH 7.0
Procedure: Platelets are obtained from healthy men according to the usual method and suspended at a concentration of 10^8 platelets/460 μl in a binding buffer (10 mM phosphate-buffers saline (pH 7.0), with 0.1% (w/V) BSA and 0.9 mM CaCl2). Platelets (10^8) in 460 μl of the buffer were added to polypropylene tubes and preincubated with test compounds (20 μl), after vortexing, for 6 min at 37° C. Subsequently, 20 μl of a binding buffer solution of ^3 H-PAF (final ^3 H-PAF concentration 0.6-1 nM) was added to the tubes, which were incubated for 6 minutes. The binding reaction was stopped by adding of 3 ml of an ice-cold washing solution (saline containing 0.1% (w/v) BSA). Platelets were isolated by vacuum filtration on glass filters (Whatman GF/C). After drying the glass filter, radioactivity on the glass filter was measured in scintilator with a liquid scintillation counter.
The inhibition percent is calculated according to the following equation and the value of IC is determined by interpolation from the figure. [formula] binding: radioactivity of binding in the absence of cold PAF or test compounds
non-specific binding: radioactivity of binding in the presence of 10^-5 M PAF
non-specific binding: radioactivity (dpm) after the incubation with 10^-5 M of cold PAF.

[1] = PAF receptor binding assay IC50, human platelets
[2] = human platelets, read-out: PAF receptor binding assay IC50

T1 sequence (P25105 whole entry): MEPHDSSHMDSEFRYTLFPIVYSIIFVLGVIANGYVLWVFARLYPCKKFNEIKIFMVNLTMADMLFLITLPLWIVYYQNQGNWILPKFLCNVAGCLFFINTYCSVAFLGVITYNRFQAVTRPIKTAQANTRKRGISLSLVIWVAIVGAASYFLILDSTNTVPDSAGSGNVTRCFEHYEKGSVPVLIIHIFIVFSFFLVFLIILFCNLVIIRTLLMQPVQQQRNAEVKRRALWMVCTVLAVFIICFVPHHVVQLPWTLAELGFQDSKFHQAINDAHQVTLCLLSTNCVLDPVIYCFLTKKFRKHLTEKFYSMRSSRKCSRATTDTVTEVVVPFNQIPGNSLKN

Compound: Cc1nnc2n1-c1sc3c(c1C(c1ccccc1Cl)=NC2)CCN(C(=O)C#Cc1ccccc1)C3
- pIC50 [1]: 9.25

Compound: C#CCCOC(=O)N1CCc2c(sc3c2C(c2ccccc2Cl)=NC(C)c2nnc(C)n2-3)C1 (single isomer, unassigned) [drawing 92]
- pIC50 [2]: 7.09

Compound: C#CCCOC(=O)N1CCc2c(sc3c2C(c2ccccc2Cl)=NCc2nnc(C)n2-3)C1 [drawing 88]
- pIC50 [2]: 8.82

Compound: Cc1nnc2n1-c1sc3c(c1C(c1ccccc1Cl)=NC2C)CCN(C(=O)C1CC1)C3 (single isomer, unassigned) [drawing 94]
- pIC50 [1]: 6.38

Compound: CCC#CCOC(=O)N1CCc2c(sc3c2C(c2ccccc2Cl)=NCc2nnc(C)n2-3)C1
- pIC50 [1]: 9.13

Compound: Cc1nnc2n1-c1sc3c(c1C(c1ccccc1Cl)=NC2C)CCN(C(=O)OC(C)(C)C#N)C3 (single isomer, unassigned) [drawing 91]
- pIC50 [2]: 8.51

Compound: C#CCCOC(=O)N1CCc2c(sc3c2C(c2ccccc2Cl)=NC(C)c2nnc(C)n2-3)C1 (single isomer, unassigned) [drawing 93]
- pIC50 [2]: 9.47

Compound: C#CCCCCOC(=O)N1CCc2c(sc3c2C(c2ccccc2Cl)=NCc2nnc(C)n2-3)C1
- pIC50 [1]: 9.66

Compound: Cc1nnc2n1-c1sc3c(c1C(c1ccccc1Cl)=NC2C)CCN(C(=O)C1CC1)C3 (single isomer, unassigned) [drawing 95]
- pIC50 [1]: 8.55

Compound: Cc1nnc2n1-c1sc3c(c1C(c1ccccc1Cl)=NC2C)CCN(C(=O)OC(C)(C)C#N)C3 (single isomer, unassigned) [drawing 90]
- pIC50 [2]: 6.30

Compound: Cc1nnc2n1-c1sc3c(c1C(c1ccccc1Cl)=NC2)CCN(C(=O)C1CCC1)C3
- pIC50 [1]: 8.74

Compound: Cc1nnc2n1-c1sc3c(c1C(c1ccccc1Cl)=NC2)CCN(C(=O)OCCCC#N)C3 [drawing 89]
- pIC50 [1]: 8.36

Compound: C#CCCOC(=O)N1CCc2c(sc3c2C(c2ccccc2Cl)=NCc2nnc(C)n2-3)C1 [drawing 83]
- pIC50 [1]: 8.46

Compound: Cc1nnc2n1-c1sc3c(c1C(c1ccccc1Cl)=NC2)CCN(C(=O)OC(C)(C)C#N)C3
- pIC50 [1]: 8.48

Compound: Cc1nnc2n1-c1sc3c(c1C(c1ccccc1Cl)=NC2)CCN(C(=O)OCCCC#N)C3 [drawing 82]
- pIC50 [1]: 8.57
